Experimental data from article PMC10575960, “Functional characterization of a lytic polysaccharide monooxygenase from Schizophyllum commune that degrades non-crystalline substrates” (Scientific Reports, 2023).

Key:
[1] = biological target: T1, ScLPMO9A (Schizophyllum commune, UniProt D8Q364); assay: NMR titration, […]-HSQC chemical shift perturbation; assay type: binding; conditions: copper-free apo enzyme, 15N-labelled, 25 mM Tris-HCl pH 7.0, 25 mM NaCl, 2.3% glycerol, 25 °C
T1 construct: gene LPMO9A; residues 20-247, pelB signal peptide for periplasmic export, E. coli T7 Express, no tag told; single domain without CBM; 15N-labelled copper-free (apo) protein for NMR
T1 sequence (D8Q364 20-247): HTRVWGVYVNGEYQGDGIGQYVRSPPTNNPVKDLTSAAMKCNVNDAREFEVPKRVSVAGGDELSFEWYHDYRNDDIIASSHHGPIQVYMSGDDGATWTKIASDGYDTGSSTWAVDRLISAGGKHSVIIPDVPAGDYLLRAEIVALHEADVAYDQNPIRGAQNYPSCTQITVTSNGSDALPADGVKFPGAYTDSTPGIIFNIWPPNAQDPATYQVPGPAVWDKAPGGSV

[2] = biological target: T2, NcLPMO9C (Neurospora crassa, UniProt Q7SHI8); assay: HPAEC-PAD product analysis; assay type: biochemical; conditions: 1 mM substrate, 1 µM LPMO, 1 mM ascorbic acid, 50 mM BisTris-HCl pH 6.5, 40 °C, 16 h
T2 construct: gene gh61-3; CBM1-containing enzyme, produced in Pichia pastoris as described earlier, copper-saturated
T2 sequence (Q7SHI8 17-359): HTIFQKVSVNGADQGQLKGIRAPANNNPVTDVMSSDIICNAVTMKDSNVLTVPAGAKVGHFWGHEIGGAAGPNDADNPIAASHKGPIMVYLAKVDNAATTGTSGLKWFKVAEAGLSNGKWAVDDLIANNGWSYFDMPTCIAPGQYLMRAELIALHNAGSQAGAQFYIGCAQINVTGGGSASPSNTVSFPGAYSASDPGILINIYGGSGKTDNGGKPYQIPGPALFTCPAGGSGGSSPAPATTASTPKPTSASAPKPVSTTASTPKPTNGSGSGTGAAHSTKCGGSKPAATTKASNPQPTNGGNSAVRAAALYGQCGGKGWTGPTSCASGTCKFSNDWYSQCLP

Compound	Kd ([1]; range from four 1H-15N signals)	HPAEC-PAD product analysis [2]	Kd ([1]; range from two 1H-15N signals)
OC[C@H]1O[C@@H](O[C@H]2[C@H](O)[C@@H](O)[C@H](O[C@H]3[C@H](O)[C@@H](O)[C@H](O[C@H]4[C@H](O)[C@@H](O)[C@H](O[C@H]5[C@H](O)[C@@H](O)[C@H](O[C@H]6[C@H](O)[C@@H](O)C(O)O[C@@H]6CO)O[C@@H]5CO)O[C@@H]4CO)O[C@@H]3CO)O[C@@H]2CO)[C@H](O)[C@@H](O)[C@@H]1O (stereo partly shown) [cellohexaose]	10 to 40 µM	With cellohexaose (Glc6), NcLPMO9C generated primarily Glc4gemGlc and cellotetraose	
OC[C@H]1O[C@@H](O[C@H]2[C@H](O)[C@@H](O)[C@H](O[C@H]3[C@H](O)[C@@H](O)[C@H](O[C@H]4[C@H](O)[C@@H](O)[C@H](O[C@H]5[C@H](O)[C@@H](O)C(O)O[C@@H]5CO)O[C@@H]4CO)O[C@@H]3CO)O[C@@H]2CO)[C@H](O)[C@@H](O)[C@@H]1O (stereo partly shown) [cellopentaose]			30 to 50 µM
OC[C@H]1O[C@@H](O[C@H]2[C@H](O)[C@@H](O)[C@H](O[C@H]3[C@H](O)[C@@H](O)[C@H](O[C@H]4[C@H](O)[C@@H](O)C(O)O[C@@H]4CO)O[C@@H]3CO)O[C@@H]2CO)[C@H](O)[C@@H](O)[C@@H]1O (stereo partly shown) [cellotetraose]		NcLPMO9C showed limited activity on cellotetraose (Glc4)	
